Here are results for 68 compounds from a flash point compilation (Sun et al. 2020).

Structures are written as SMILES. Where a name gives a salt, the structure may show the parent alone.

Assay in data set [1]: not given
The source holds these as a separate data set.

Assay in data set [2]: not given
The source holds these as a separate data set.

`C1=CCC=CC1` [1,4-cyclohexadiene]: the flash point is -11 °C. The same compound had a flash point in data set [1] of -6 °C.

Take `C1=CCCC=CCC1` [1,5-cyclooctadiene]: the flash point was 35 °C. Further, the flash point in data set [1] is 32 °C.

Turning to `C#CCCCCCC#C` [1,8-nonadiyne], the flash point was 42 °C. The flash point in data set [1] was found to be 41 °C.

For the compound `CCCCBr` [1-bromobutane], the flash point in data set [2] came to 18.00 °C; in data set [1], 13 °C.

As for `CCCBr` [1-bromopropane], the flash point in data set [2] came to 26.00 °C; in data set [1], 21 °C.

Regarding `CC(C)CCl` [1-chloro-2-methylpropane], the flash point is -10.00 °C in data set [2] and 21 °C in data set [1].

On to `CCCCl` [1-chloropropane], for which the flash point is -18.00 °C in data set [2] and -31 °C in data set [1].

With `C#CCCCCCCCC` [1-decyne], the flash point was found to be 48 °C. In data set [1], this compound came in with a flash point of 50 °C.

Regarding `C=CCCCCCCCCCC` [1-dodecene], the flash point stood at 73 °C. This compound returned a flash point in data set [1] of 77 °C.

For `CC1=CCCCC1` [1-methylcyclohexene], the flash point is -1 °C. In data set [1], this compound yielded a flash point of -3 °C.

In turn, `CC1=CCCC1` [1-methylcyclopentene] returned a flash point of -19 °C. In data set [1], this compound gave a flash point of -17 °C.

Take `CC(C)=CC=C(C)C` [2,5-dimethyl-2,4-hexadiene]: the flash point came to 24 °C. Further, the flash point in data set [1] was determined as 29 °C.

Turning to `CCOCCO` [2-ethoxyethanol], the flash point in data set [2] stood at 41.00 °C; in data set [1], 44 °C.

For `CC#CCCC` [2-hexyne], the flash point was -10 °C. In data set [1], this compound registered a flash point of -11 °C.

`COCCOC(C)=O` [2-methoxyethylacetate] gave a flash point of 43 °C. In addition, in data set [1], the flash point was determined as 45 °C.

The compound `CC(C)(C)S` [2-methyl-2-propanethiol] came in with a flash point of -24 °C. For the same compound, the flash point in data set [1] was -26 °C.

Compound `CC(CCO)CC(C)(C)C` (stereo not given) [3,5,5-trimethyl-1-hexanol] yielded a flash point of 80 °C. In data set [1], the flash point worked out at 79 °C.

For the compound `CC(C)CC(=O)O` [3-methylbutanoic acid], the results for the flash point in data set [2] and in data set [1] were 70.00 °C and 74 °C, respectively.

For `CCBr` [bromoethane], the flash point is -23.00 °C in data set [2] and -20 °C in data set [1].

For the compound `ClC1CCCCC1` [chlorocyclohexane], the flash point was 28 °C. The compound also showed a flash point in data set [1] of 32 °C.

`C1CCCCCCCCC1` [cyclodecane] displayed a flash point of 59 °C. Further, the flash point in data set [1] is 65 °C.

The compound `NCCNCCN` [diethylenetriamine] had a flash point of 90 °C. This compound also had a flash point in data set [1] of 97 °C.

In the case of `COC(=O)OC` [dimethyl carbonate], the figures for the flash point in data set [2] and in data set [1] were -1.00 °C and 18 °C, respectively.

As for `CCOC(=O)c1ccccc1` [ethyl benzoate], the flash point in data set [1] came to 88 °C.

In data set [1], `CCOC(=O)CCl` [ethyl chloroacetate] had a flash point of 53 °C.

As for `CCC1CCCC1` [ethyl cyclopentane], the flash point in data set [1] stood at 15 °C.

Compound `O=C1OCCO1` [ethylene carbonate] gave a flash point in data set [1] of 150 °C.

In data set [1], `FC1CCCCC1` [fluorocyclohexane] gave a flash point of 5 °C.

`OCC(O)CO` [glycerol] gave a flash point in data set [1] of 184 °C.

For `CCCCCCC(=O)O` [heptanoic acid], in data set [1], the flash point amounted to 112 °C.

`Oc1ccc(O)cc1` [hydroquinone] returned a flash point in data set [1] of 165 °C.

In the case of `Ic1ccccc1` [iodobenzene], in data set [1], the flash point worked out at 74 °C.

Compound `C=C(C)C=O` [isobutenal] gave a flash point in data set [1] of -0 °C.

Compound `C=C(C)C` [isobutene] gave a flash point in data set [1] of -76 °C.

Compound `CC(C)COC(=O)C(C)C` [isobutyl isobutyrate] showed a flash point in data set [1] of 40 °C.

Consider `CCCCCC#CC(=O)OC` [methyl 2-octynoate], for which the flash point in data set [1] was 88 °C.

With `CCCC(=O)OC` [methyl butyrate], the flash point in data set [1] came out at 11 °C.

In turn, `COC(=O)C1CC1` [methyl cyclopropanecarboxylate] registered a flash point in data set [1] of 17 °C.

In the case of `CCCCCCC(=O)OC` [methyl heptanoate], the flash point in data set [1] was determined as 52 °C.

In turn, `COC(=O)C(C)C` [methyl isobutyrate] returned a flash point in data set [1] of 3 °C.

`C=C(C)C(C)=O` [methyl isopropenyl ketone]: in data set [1], the flash point was found to be 13 °C.

As for `CCC(=O)OC` [methyl propionate], the flash point in data set [1] came out at 6 °C.

For `CC1=CC=CC1` [methylcyclopentadiene], the flash point in data set [1] stood at 26 °C.

The compound `C=C1CCCC1` [methylenecyclopentane] had a flash point of -18 °C. In data set [1], this compound displayed a flash point of -19 °C.

On to `C1COCCN1` [morpholine], for which the values for the flash point in data set [2] and in data set [1] were 38.00 °C and 35 °C, respectively.

The compound `CCCCCCCCC=O` [n-nonanal] came in with a flash point in data set [1] of 71 °C.

For `CCCCCOC(C)=O` [n-pentyl acetate], the flash point in data set [1] worked out at 25 °C.

Compound `CCCOC(C)=O` [n-propyl acetate] came in with a flash point in data set [1] of 10 °C.

In the case of `CCc1ccccc1CC` [o-diethyl benzene], the flash point in data set [1] was determined as 49 °C.

On to `Cc1ccc(O)cc1` [p-cresol], for which the flash point in data set [1] amounted to 86 °C.

For the compound `CCCCC=O` [pentanal], the flash point in data set [2] was 12.00 °C; in data set [1] it was 8 °C.

With `O=C=Nc1ccccc1` [phenyl isocyanate], the flash point in data set [1] is 51 °C.

The compound `CCC(=O)O` [propionic acid] displayed a flash point in data set [1] of 51 °C.

In turn, `c1cc[nH]c1` [pyrrole] registered a flash point in data set [1] of 33 °C.

`c1ccc2ncccc2c1` [quinoline]: in data set [1], the flash point was 105 °C.

In turn, `CCC(C)SC(C)CC` (stereo not given) [s-butyl sulfide] gave a flash point in data set [1] of 39 °C.

`CCC(C)c1ccccc1` (stereo not given) [sec-butylbenzene] registered a flash point in data set [1] of 45 °C.

For the compound `CC(C)(C)OC=O` [t-butyl formate], the flash point in data set [1] is -9 °C.

Compound `CSC(C)(C)C` [t-butyl methyl sulfide] had a flash point in data set [1] of -3 °C.

Turning to `CC(C)(C)ON=O` [t-butyl nitrite], in data set [1], the flash point is -23 °C.

On to `CCC(=O)OC(C)(C)C` [t-butyl propionate], for which the flash point in data set [1] was found to be 20 °C.

`CC(=O)OC(C)(C)C` [tert-butyl acetate]: the flash point in data set [2] was found to be 22.00 °C; in data set [1], 15 °C.

In data set [1], `COC(C)(C)C` [tert-butyl methyl ether] displayed a flash point of -28 °C.

Compound `CC(C)(C)N` [tert-butylamine] showed a flash point in data set [1] of -9 °C.

In turn, `C1CCSC1` [thiacyclopentane] yielded a flash point in data set [1] of 12 °C.

For the compound `c1ccc(CN(Cc2ccccc2)Cc2ccccc2)cc1` [tribenzylamine], the flash point in data set [1] came to 203 °C.

The compound `CCN(CC)CC` [triethylamine] yielded a flash point in data set [1] of -17 °C.

The compound `CCCCCCCCCCCc1ccccc1` [undecylbenzene] returned a flash point in data set [1] of 144 °C.
